Test results published in US20220340955A1, “METHODS FOR DIAGNOSING AND TREATMENT MONITORING OF ADNP-DEFICIENT PATIENTS” (RAMOT AT TEL-AVIV UNIVERSITY LTD., priority 2019, published 2022).

Legend:
[1] = test system: murine intestinal microbiota; experiment: Murine fecal microbiota analysis (qRT-PCR, 16S rRNA gene) in Adnp+/− mouse model; assay type: in vivo
Experimental: (§1) All procedures involving animals in the Adnp-mutated mouse model were approved by the Animal Care and Use Committee of Tel Aviv University and the Israeli Ministry of Health. Adnp heterozygous mice (Adnp^+/−) on an ICR background (an outbred mouse line), a model for the ADNP syndrome (Hacohen-Kleiman et al. 2018), were housed in a 12-h light/12-h dark cycle facility with free access to rodent chow and water. Genotyping was performed by Transnetyx (Memphis, Tenn.). After genotyping, the mice were housed in separate cages based on sex, genotype and treatment (up to five mice per cage), for two weeks prior to beginning of NAP treatment.
(§2) NAP peptide was custom made as described in (Hacohen-Kleiman et al. 2018). Prior to behavioral tests, intranasal treatment was administered daily to 1-month-old male and female mice (0.5 μg/5 μl/mouse/dose). For intranasal administration, the peptide was dissolved in a vehicle solution, termed DD, in which each milliliter included 7.5 mg of NaCl, 1.7 mg of citric acid monohydrate, 3 mg of disodium phosphate dihydrate, and 0.2 mg of benzalkonium chloride solution (50%). Each mouse was handheld in a semi-supine position with nostrils facing the investigator. A pipette tip was used to administer 5 μl/two nostrils. The mouse was handheld until the solution was entirely absorbed (˜10 s). Nasal NAP application was performed daily, once a day, for 45 days (5 days a week). After 45 days of treatment, in days of scheduled behavioral tests, NAP was applied 2 h before the test.
Fecal pellets (1-2/mice) were collected 45 days after the beginning of treatment (NAP or DD) and stored at −80° C. until DNA purification procedures. The samples were thawed on ice mixed with 400 μl of sterile PBS/sample followed by mechanical disruption of the sample using a BeadBug microtube homogenizer (Daniel Biotech, Rehovot, Israel) for 2 minutes at 4,000 rpm. A 25 μl sample of lysozyme solution (20 mg/ml) was added, and the samples were incubated with shaking for 30 min at 37° C. on a thermo shaker racking platform. Next, 20 μl proteinase K (20 mg/ml) was included and the samples were thoroughly mixed with 400 μl of sterile lysis buffer (20 mM Tris HCl, 300 mM NaCl, 400 mM EDTA and 1% SDS) and incubated with shaking for 60 min at 56° C. on a thermo shaker racking platform. Next, 300 mg sterile zirconium beads and 150 μl of phenol was added to the samples followed by homogenization (twice for 40 sec. at 4,000 rpm, Daniel biotech, Rehovot, Israel). Then, 150 μl of CI-solution (chloroform-isoamyl alcohol 24:1) was added, mixed and submitted for centrifugation 13,000 rpm at room temperature for 5 minutes, Eppendorf Centrifuge 5417R (Eppendorf, Hamburg, Germany). A 600 μl volume of supernatant was removed and placed in a sterile 2 mL Eppendorf tube. 150 μl of CI-solution was then included and the samples were subjected to centrifugation as above. A 400 μl of aqueous, clear top phase was removed and placed in a sterile 2 mL Eppendorf tube. Then, the 400 μl of DNA solution was mixed with 100 μl of precipitation solution (40 mM EDTA 1.2M sodium acetate and 4 mg/ml glycogen). 1.3 mL of ice-cold 100% ethanol was added, the samples were then mixed and stored over night at −20° C. for DNA precipitation followed by centrifugation (13,000 rpm) at 4° C. The supernatant was discarded and the pellet washed with 500 μl ice-cold 70% ethanol followed by centrifugation for 5 minutes at 13,000 rpm, 4° C. (this step was repeated twice). The pellet was dried in the Speed Vac (Eppendorf Concentrator 5301) for 15 minutes and then re-suspended in 100 μl sterile water. Next, the samples were mixed on the shaker for 10 minutes at room temperature. In the next step, the samples were further purified using Qiagen Purification Kit according to the manufacturer's instructions ([…], Hilden, Germany). DNA was eluted in 100 μl sterile water and stored at −20° C. for long storage. […]

[2] = Body weight of Adnp+/− mice; assay type: in vivo, mouse; conditions: male Adnp+/− cohort, NAP treatment
Experimental: as §1
as §2, with “Nasal NAP application was performed daily, once a day, for 45 days (5 days a week). After 45 days of treatment, in days of scheduled behavioral tests, NAP was applied 2 h before the test.” left out

[3] = test system: Adnp+/− mice; experiment: Open field behavior of Adnp+/− mice; assay type: in vivo, mouse
Experimental: as §1, §2
The test provides a unique opportunity to systematically assess novel environment exploration, general locomotor activity, and anxiety-related behavior in rodents. […] The distance moved and time spent in the entire open field, as well as in its inner defined quadrants (center, border) was recorded using the EthoVision XT video tracking system and software (Noldus Inc. Leesburg, VA). […]

[4] = test system: Adnp+/− mice; conditions: exogenous administration of NAP; cited from earlier work
[5] = test system: Adnp p.Tyr718* mice; experiment: Visual evoked potential in CRISPR/Cas9 Adnp p.Tyr718* mice; assay type: in vivo, mouse; conditions: Adnp p.Tyr718* mice (discovered in males), NAP treatment
Text: We have developed another Adnp mutated mouse model using CRISP/Cas9 technology. The mice carry the most prevalent ADNP syndrome mutation (e.g. Adnp p.Tyr718* in the mouse corresponding to ADNP pTyr719* in the human). […] Monitoring visual evoked potential provides an objective observation of aberrant ADNP activity on one hand and its correction by treatment, e.g. by NAP peptide on another hand. Given the results in Example 1, gut microbiota samples are now being analyzed and are correlated also to visual evoked potential responses of males and females, coupling biomarkers for better diagnostics and clinical monitoring. The following bacteria in gut microbiota are tested and correlated with changes in visual evoked potential in subjects having aberrant ADNP activity: Bifidobacterium, Clostridium, Bacteroides, Faecalibacterium, Eubacterium, Ruminococcus, Peptococcus, Peptostreptococcus, Parabacteroides, Escherichia coli, Verrucomicrobia, Lactobacillus, Clostridium coccoides group, Mouse Intestinal Bacteroides (MIB) Enterococcus genus (gEncocc) and Clostridium Cluster IV (sgClep).

[6] = test system: human microbiota-harboring mice suffering from subacute ileitis; conditions: gut inflammation model; cited from earlier work
[7] = female Adnp+/− mice, fecal samples, intranasal NAP 0.5 μg/mouse daily, 45 days
[8] = females, genotype and NAP treatment effect
[9] = male Adnp+/− mice, fecal samples, intranasal NAP 0.5 μg/mouse daily, 45 days
[10] = males, genotype and NAP treatment effect

## NAPVSIPQ
[1]; Adnp deficient mice
  Changes in microbiota (overall effect of NAP treatment): partially reverses
[1]; female Adnp+/+ mice, fecal samples, NAP treated (data not shown)
  Total Eubacterial loads: essentially lower total Eubacterial loads
[1]; female Adnp+/− mice
  Trending genotype increases in microbiota groups corrected by NAP treatment: significantly corrected two trending genotype increases
[1]; [7]
  Clostridium coccoides group (Coer) abundance: significant NAP-dependent decreases
  Enterococcus genus (gEncocc) numbers: lower fecal Enterococcus genus (gEncocc) numbers
[1]; [8]
  Bacteroides/Prevotella spp (Bac) abundance: neither affected by genotype nor by NAP treatment
  Bifidobacterium genus (BIF) abundance: neither affected by genotype nor by NAP treatment
  Enterobacteriaceae (Entero) abundance: neither affected by genotype nor by NAP treatment
  Eubacteriaceae (EubV3) abundance: neither affected by genotype nor by NAP treatment
  Mouse Intestinal Bacteroides (MIB) abundance: neither affected by genotype nor by NAP treatment
[1]; male Adnp+/+ controls, NAP treated compared to placebo treated (data not shown)
  Clostridium coccoides group (Coer) intestinal numbers: higher intestinal numbers
[1]; male Adnp+/− mice
  Genotype affected microbiota groups whose deficit was reversed by NAP treatment: four out of five
[1]; [9]
  Bifidobacterium genus (BIF) abundance: decreased to control levels
  Clostridium coccoides group (Coer) abundance: except for Clostridium coccoides group (Coer) decreased to control levels
  Lactobacillus group (Lacto) abundance: decreased to control levels
  Mouse Intestinal Bacteroides (MIB) abundance: decreased to control levels
  Total Eubacterial loads (EubV3): decreased to control levels
[1]; [10]
  Bacteroides/Prevotella spp (Bac) abundance: neither affected by genotype nor by NAP treatment
  Clostridium Cluster IV (sgClep) abundance: neither affected by genotype nor by NAP treatment
  Enterobacteriaceae (Entero) abundance: neither affected by genotype nor by NAP treatment
  Enterococcus genus (gEncocc) abundance: neither affected by genotype nor by NAP treatment
[2]
  Body weight: increased weight
[3]; Adnp deficient mice
  Behavioral changes (overall effect of NAP treatment): partially reverses
[3]; Adnp+/+, Adnp+/− and NAP treated Adnp+/− mice, FIG. 3B
  Time spent in the center area (open field): did not reveal significant changes
[3]; untreated male Adnp+/− mice vs Adnp+/+ (p<0.01) and vs NAP treated Adnp+/− mice (p<0.05), FIG. 3A
  Frequency entrance to the center area (open field): significantly higher frequency entrance in to the center area compared to Adnp^+/+ mice and NAP treated Adnp^+/− mice
[4]
  Behavioral and developmental defects: at least partially reverse behavioral and developmental defects
[5]
  Aberrant visual evoked potential patterns: rapidly corrected
[6]
  Anti-inflammatory effects: anti-inflammatory NAP effects were observed
